Data set [1] is described as follows: Stability in mouse liver S9 fraction assessed as extraction ratio at 3 uM measured upto 45 mins in presence of NADPH and UDPGA by LC-MS/MS analysis. It is filed as ADME, subcellular.
Data set [2] can be described thus: Stability in mouse liver S9 fraction assessed as half life at 3 uM measured upto 45 mins in presence of NADPH and UDPGA by LC-MS/MS analysis. The format is ADME, subcellular.
The nature of data set [3]: Drug uptake in po dosed CD-1 mouse xenografted with human HL-60 cells administered twice daily for 4 weeks and measured 1 to 8 hrs after post last dose. It is filed as ADME, organism-based. The conditions noted are these: in vivo, 672 h. (In xenograft studies the graft and the host belong to different species.)
The nature of data set [4]: Apparent permeability of compound in human Caco2 cells at 10 uM incubated for 120 mins by LC-MS/MS analysis. The format is ADME, cell-based. Conditions: Caco-2. For orientation: Caco-2 cells form a polarised layer with tight junctions and transporters.
Data set [5] in a line: Elimination half-life in CD-1 mouse at 60 mg/kg, po administered as repeated dose measured at day 4 by LC-MS/MS analysis. The format is ADME, organism-based. Conditions: in vivo, time 4 day, read-out: beta t1/2 (converted).
Data set [6] in a line: AUC(0 to 8 hrs) in CD-1 mouse at 3 mg/kg, po administered as single dose measured over 24 hrs by LC-MS/MS analysis. The format is ADME, organism-based. Also on record: route oral, time 24 hrs, dose 3 mg/kg. The conditions noted are these: in vivo.
The nature of data set [7]: AUC(0 to 8 hrs) in CD-1 mouse at 60 mg/kg, po administered as repeated dose measured at day 1 by LC-MS/MS analysis. The format is ADME, organism-based. Set-up: route oral, dose 60 mg/kg, time 1 day. Conditions: in vivo.
The nature of data set [8]: AUC(0 to 8 hrs) in CD-1 mouse at 60 mg/kg, po administered as repeated dose measured at day 4 by LC-MS/MS analysis. The format is ADME, organism-based. Set-up: route oral, time 4 day, dose 60 mg/kg. Conditions: in vivo.
A short description of data set [9]: Dose normalized AUC (0 to 8 hrs) in CD-1 mouse at 3 mg/kg, po administered as single dose measured over 24 hrs by LC-MS/MS analysis. The format is ADME, organism-based. Conditions: in vivo.
Data set [10] can be described thus: Dose normalized AUC (0 to 8 hrs) in CD-1 mouse at 60 mg/kg, po administered as repeated dose measured at day 1 by LC-MS/MS analysis. It is filed as ADME, organism-based. The conditions noted are these: in vivo, 24 h, time 1 day.
Data set [11] can be described thus: Dose normalized AUC (0 to 8 hrs) in CD-1 mouse at 60 mg/kg, po administered as repeated dose measured at day 4 by LC-MS/MS analysis. Conditions: in vivo, 96 h, time 4 day. The format is ADME, organism-based.
Data set [12] can be described thus: Cmax in CD-1 mouse at 60 mg/kg, po administered as repeated dose measured at day 1 by LC-MS/MS analysis. It is filed as ADME, organism-based. Set-up: route oral, time 1 day, dose 60 mg/kg. The conditions noted are these: in vivo.
Data set [13] is described as follows: Cmax in CD-1 mouse at 60 mg/kg, po administered as repeated dose measured at day 4 by LC-MS/MS analysis. Set-up: route oral, dose 60 mg/kg, time 4 day. It is filed as ADME, organism-based. The conditions noted are these: in vivo.
Data set [14] is described as follows: Dose normalized Cmax in CD-1 mouse at 3 mg/kg, po administered as single dose measured over 24 hrs by LC-MS/MS analysis. It is filed as ADME, organism-based. Conditions: in vivo.
A short description of data set [15]: Dose normalized Cmax in CD-1 mouse at 60 mg/kg, po administered as repeated dose measured at day 1 by LC-MS/MS analysis. The format is ADME, organism-based. The conditions noted are these: in vivo, 24 h, time 1 day.
Data set [16] is described as follows: Dose normalized Cmax in CD-1 mouse at 60 mg/kg, po administered as repeated dose measured at day 4 by LC-MS/MS analysis. It is filed as ADME, organism-based. Conditions: in vivo, 96 h, time 4 day.
Data set [17] can be described thus: Observed clearance in CD-1 mouse at 3 mg/kg, po administered as single dose measured over 24 hrs by LC-MS/MS analysis. The format is ADME, organism-based. The conditions noted are these: in vivo.

From ChEMBL document CHEMBL4840350 (J Med Chem, 2021) come the findings set out here.

Usually Papp stands for a coefficient for how fast a substance crosses the barrier. Usually AUC(0-t) stands for exposure summed from dosing to a finite time, without extrapolation to infinity. Read a high AUC(0-t) as high exposure. What is called AUC is concentration integrated over time. A higher AUC goes with high exposure. The Cmax is the peak of the concentration-time curve. In general, CL/F refers to the apparent clearance, not corrected for the fraction that reaches the circulation.

Regarding `Cc1cc(C#N)ccc1-c1cc2c(cn1)ncn2-c1ccc(OC(F)F)cc1`, in data set [1], the ERH was found to be 0.02.

Regarding `Cc1cc(F)ccc1-c1cc2c(cn1)ncn2-c1ccc(OC(F)F)nc1`, the ERH in data set [1] is listed as 0.09.

Turning to `COc1ccc(Cn2cnc3cnc(Nc4cccc(NC(C)=O)c4)cc32)cc1OC`, the half-life at […], 3 µM in data set [2] was determined as 0.7 h.

Consider `Cc1cc(F)ccc1-c1cc2c(cn1)ncn2-c1ccc(OC(F)F)cc1`, for which the Drug uptake result in data set [3] is “Dose-Dependent Effect”. Further, the Papp at 2 h, 10 µM in [4] amounted to 14 ×10⁻⁶ cm/s. The half-life in data set [5] is 8.1 h. Further, the AUC(0-t) at 24 h in [6] was found to be 363 ng·h/mL; in data set [7], 9860 ng·h/mL. Further, in [8], the exposure (AUC) at 96 h came to 9220 ng·h/mL. In addition, the results for the AUC/dose in [9], in data set [10] and in data set [11] were 121 ng·h/mL per mg/kg, 164 ng·h/mL per mg/kg and 154 ng·h/mL per mg/kg, respectively. The maximum concentration (Cmax) is 2210 ng/mL in [12] and 2680 ng/mL in [13]. The values for the Cmax/dose in [14], in [15] and in data set [16] were 43 ng/mL, 37 ng/mL and 45 ng/mL, respectively. Further, the CL/F in data set [17] came to 129 mL/min/kg.
